Results: ChEMBL document CHEMBL4419169, “Novel Ferroportin Inhibitors” (2018)

Columns and labels:
Format in all cases: functional
Mus musculus [1] = assay: Disease modifying capacity in mouse model of transfusion-independent beta-thalassemia intermedia assessed as decrease in leukocyte counts level at 20 mg/kg, po BID for 20 days relative to control; set-up: scale not given: the % may be the effect or the level left
Rattus norvegicus [2] = assay: Prevention of iron absorption in anemic Wistar rat model of iron absorption assessed as inhibition of increase in serum iron at 30 mg/kg, po pre-dosed 1 hr before ferrous sulfate dosing and measured 3 hours after iron dosing
Mus musculus [3] = assay: Disease modifying capacity in mouse model of transfusion-independent beta-thalassemia intermedia assessed as decrease in bone marrow ROS levels level at 60 mg/kg, po BID for 20 days relative to control; set-up: scale not given: the % may be the effect or the level left
Mus musculus [4] = assay: Disease modifying capacity in mouse model of transfusion-independent beta-thalassemia intermedia assessed as decrease in relative spleen weight at 60 mg/kg, po BID for 20 days relative to control; set-up: scale not given: the % may be the effect or the level left
Mus musculus [5] = assay: Disease modifying capacity in mouse model of transfusion-independent beta-thalassemia intermedia assessed as decrease in [58Fe] spleen iron content at 60 mg/kg, po BID for 20 days relative to control; set-up: scale not given: the % may be the effect or the level left
Mus musculus [6] = assay: Disease modifying capacity in mouse model of transfusion-independent beta-thalassemia intermedia assessed as increase in hematocrit levels at 20 mg/kg, po BID for 20 days relative to control
Mus musculus [7] = assay: Disease modifying capacity in mouse model of transfusion-independent beta-thalassemia intermedia assessed as decrease in bone marrow ROS levels level at 20 mg/kg, po BID for 20 days relative to control; set-up: scale not given: the % may be the effect or the level left
Mus musculus [8] = assay: Disease modifying capacity in mouse model of transfusion-independent beta-thalassemia intermedia assessed as decrease in relative spleen weight at 20 mg/kg, po BID for 20 days relative to control; set-up: scale not given: the % may be the effect or the level left
Mus musculus [9] = assay: Disease modifying capacity in mouse model of transfusion-independent beta-thalassemia intermedia assessed as prevention of liver [58Fe] loading at 20 mg/kg, po BID for 20 days relative to control
Rattus norvegicus [10] = assay: Prevention of iron absorption in anemic Wistar rat model of iron absorption assessed as inhibition of increase in serum iron at 10 mg/kg, po pre-dosed 1 hr before ferrous sulfate dosing and measured 3 hours after iron dosing
Mus musculus [11] = assay: Prevention of hyperferremia in iron overloaded beta2-microglobulin deficient female mouse assessed as reduction in serum iron level at 20 mg/kg, po measured after 3 hrs relative to control; set-up: scale not given: the % may be the effect or the level left
Mus musculus [12] = assay: Prevention of hyperferremia in iron overloaded beta2-microglobulin deficient male mouse assessed as reduction in serum iron level at 20 mg/kg, po measured after 3 hrs relative to control; set-up: scale not given: the % may be the effect or the level left
Mus musculus [13] = assay: Disease modifying capacity in mouse model of transfusion-independent beta-thalassemia intermedia assessed as increase in blood erythrocyte counts at 60 mg/kg, po BID for 20 days relative to control
Mus musculus [14] = assay: Disease modifying capacity in mouse model of transfusion-independent beta-thalassemia intermedia assessed as decrease in serum erythropoietin at 20 mg/kg, po BID for 20 days relative to control; set-up: scale not given: the % may be the effect or the level left
Mus musculus [15] = assay: Induction of hypoferremia in wild type C57BL/6 mouse assessed as decrease in serum iron levels at 100 mg/kg, po measured after 3 hrs post dose; set-up: scale not given: the % may be the effect or the level left
Mus musculus [16] = assay: Disease modifying capacity in mouse model of transfusion-independent beta-thalassemia intermedia assessed as decrease in [58Fe] spleen iron content at 20 mg/kg, po BID for 20 days relative to control; set-up: scale not given: the % may be the effect or the level left
Mus musculus [17] = assay: Prevention of hyperferremia in iron overloaded beta2-microglobulin deficient female mouse assessed as reduction in serum iron level at 60 mg/kg, po measured after 3 hrs relative to control; set-up: scale not given: the % may be the effect or the level left
Mus musculus [18] = assay: Prevention of hyperferremia in iron overloaded beta2-microglobulin deficient male mouse assessed as reduction in serum iron level at 60 mg/kg, po measured after 3 hrs relative to control; set-up: scale not given: the % may be the effect or the level left
Mus musculus [19] = assay: Induction of hypoferremia in wild type C57BL/6 mouse assessed as decrease in serum iron levels at 10 mg/kg, po measured after 3 hrs post dose; set-up: scale not given: the % may be the effect or the level left
Mus musculus [20] = assay: Disease modifying capacity in mouse model of transfusion-independent beta-thalassemia intermedia assessed as prevention of liver [58Fe] loading at 60 mg/kg, po BID for 20 days relative to control
Mus musculus [21] = assay: Disease modifying capacity in mouse model of transfusion-independent beta-thalassemia intermedia assessed as increase in hematocrit levels at 60 mg/kg, po BID for 20 days relative to control
Mus musculus [22] = assay: Decrease in serum iron in mouse model of transfusion-independent beta-thalassemia intermedia at 60 mg/kg, po BID for 20 days relative to control; set-up: scale not given: the % may be the effect or the level left
Mus musculus [23] = assay: Disease modifying capacity in mouse model of transfusion-independent beta-thalassemia intermedia assessed as increase in blood erythrocyte counts at 20 mg/kg, po BID for 20 days relative to control
Mus musculus [24] = assay: Disease modifying capacity in mouse model of transfusion-independent beta-thalassemia intermedia assessed as decrease in leukocyte counts level at 60 mg/kg, po BID for 20 days relative to control; set-up: scale not given: the % may be the effect or the level left
Mus musculus [25] = assay: Disease modifying capacity in mouse model of transfusion-independent beta-thalassemia intermedia assessed as decrease in RDW level at 20 mg/kg, po BID for 20 days relative to control; set-up: scale not given: the % may be the effect or the level left
Rattus norvegicus [26] = assay: Prevention of iron absorption in anemic Wistar rat model of iron absorption assessed as inhibition of increase in serum iron at 3 mg/kg, po pre-dosed 1 hr before ferrous sulfate dosing and measured 3 hours after iron dosing
Mus musculus [27] = assay: Induction of hypoferremia in wild type C57BL/6 mouse assessed as decrease in serum iron levels at 30 mg/kg, po measured after 3 hrs post dose; set-up: scale not given: the % may be the effect or the level left
Mus musculus [28] = assay: Disease modifying capacity in mouse model of transfusion-independent beta-thalassemia intermedia assessed as decrease in RDW level at 60 mg/kg, po BID for 20 days relative to control; set-up: scale not given: the % may be the effect or the level left
Mus musculus [29] = assay: Disease modifying capacity in mouse model of transfusion-independent beta-thalassemia intermedia assessed as decrease in serum erythropoietin at 60 mg/kg, po BID for 20 days relative to control; set-up: scale not given: the % may be the effect or the level left
Mus musculus [30] = assay: Disease modifying capacity in mouse model of transfusion-independent beta-thalassemia intermedia assessed as decrease in blood reticulocyte counts at 20 mg/kg, po BID for 20 days relative to control; set-up: scale not given: the % may be the effect or the level left
Mus musculus [31] = assay: Decrease in serum iron in mouse model of transfusion-independent beta-thalassemia intermedia at 20 mg/kg, po BID for 20 days relative to control; set-up: scale not given: the % may be the effect or the level left

O=C(NCc1ncccc1F)c1cnc(C2CN(CCc3nc4ccccc4[nH]3)C2)o1
Activity (Mus musculus [1]): 29% | inhibition in vivo at 30 mg/kg (Rattus norvegicus [2]): 57% | Activity (Mus musculus [3]): 65% | Activity (Mus musculus [4]): 47% | Activity (Mus musculus [5]): 40% | Activity (Mus musculus [6]): 0% | Activity (Mus musculus [7]): 13% | Activity (Mus musculus [8]): 16% | Activity (Mus musculus [9]): 14% | inhibition in vivo at 10 mg/kg (Rattus norvegicus [10]): 29% | Activity (Mus musculus [11]): 27% | Activity (Mus musculus [12]): 29% | Activity (Mus musculus [13]): 33% | Activity (Mus musculus [14]): 4% | Activity (Mus musculus [15]): 50% | Activity (Mus musculus [16]): 13% | Activity (Mus musculus [17]): 57% | Activity (Mus musculus [18]): 66% | Activity (Mus musculus [19]): 9% | Activity (Mus musculus [20]): 47% | Activity (Mus musculus [21]): 15% | Activity (Mus musculus [22]): 69% | Activity (Mus musculus [23]): 0% | Activity (Mus musculus [24]): 55% | Activity (Mus musculus [25]): 0% | inhibition in vivo at 3 mg/kg (Rattus norvegicus [26]): -3% | Activity (Mus musculus [27]): 26% | Activity (Mus musculus [28]): 15% | Activity (Mus musculus [29]): 27% | Activity (Mus musculus [30]): 0% | Activity (Mus musculus [31]): 50%
